Experimental data taken from patent publication US20140057901A1, “XANTHINE DERIVATIVES, THE PREPARATION THEREOF AND THEIR USE AS PHARMACEUTICAL COMPOSITIONS” (Boehringer Ingelheim Pharma GmbH & Co. KG, priority 2001, published 2014).

melting point: 110 to 112 °C
Compound: CC(C)=CCn1c(N2CCC(CN)CC2)nc2c1c(=O)n(C)c(=O)n2C [Example 2(105), 1,3-dimethyl-7-(3-methyl-2-buten-1-yl)-8-(4-aminomethyl-piperidin-1-yl)-xanthine]
